Where two headings read alike, the source gives them in different places. Where a SMILES comes first, the peptide text is derived from it. [ ]: non-standard residue; d: D form. The star is where a group is joined. ξ: configuration not given here. X1 = O=C(O)CC[C@H](NC(=O)N[C@@H](CCCCNC(=O)CCCCCCC(=O)*)C(=O)O)C(=O)O; DOTA = O=C(O)CN1CCN(CC(=O)O)CCN(CC(=O)*)CCN(CC(=O)O)CC1; ξF = NC(Cc1ccccc1)C(=O)O
Experiments:
PSMA = PSMA (Homo sapiens, UniProt Q04609); experiment: PSMA inhibitory activities, fluorescence-based assay (Example 3); format: biochemical
PSMA, sequence (Q04609 whole entry): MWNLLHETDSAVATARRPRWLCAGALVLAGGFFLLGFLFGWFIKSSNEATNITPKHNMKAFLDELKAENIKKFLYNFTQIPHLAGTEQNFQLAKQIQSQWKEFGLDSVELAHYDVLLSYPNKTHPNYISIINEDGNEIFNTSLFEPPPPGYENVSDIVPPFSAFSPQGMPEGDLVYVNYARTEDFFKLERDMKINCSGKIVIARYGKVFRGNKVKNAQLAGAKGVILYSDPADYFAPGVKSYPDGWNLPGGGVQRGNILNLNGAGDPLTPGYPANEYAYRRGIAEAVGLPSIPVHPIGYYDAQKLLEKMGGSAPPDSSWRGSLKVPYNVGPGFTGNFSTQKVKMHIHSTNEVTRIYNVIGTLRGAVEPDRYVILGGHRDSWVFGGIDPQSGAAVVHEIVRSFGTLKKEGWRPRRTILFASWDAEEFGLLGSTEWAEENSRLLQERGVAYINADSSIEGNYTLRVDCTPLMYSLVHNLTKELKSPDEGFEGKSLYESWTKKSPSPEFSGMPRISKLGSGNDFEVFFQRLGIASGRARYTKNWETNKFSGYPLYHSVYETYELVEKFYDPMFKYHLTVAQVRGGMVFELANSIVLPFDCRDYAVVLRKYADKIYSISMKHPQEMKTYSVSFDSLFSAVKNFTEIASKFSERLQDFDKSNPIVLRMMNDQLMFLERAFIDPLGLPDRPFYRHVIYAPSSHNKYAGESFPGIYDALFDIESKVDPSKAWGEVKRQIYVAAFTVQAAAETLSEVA
Method: PSMA inhibitory activities were determined using a fluorescence-based assay (Banerjee, Pullambhatla, Byun, et al., 2011). Enzyme inhibitory constants (Ki values) were generated using the Cheng-Prusoff conversion (Cheng and Prusoff, 1973). Sub-lines of the androgen independent PC-3 human prostate cancer xenograft were used (Banerjee, Pullambhatla, Byun, et al., 2011). Those sub-lines have been modified to express high (PC-3 PIP) or naturally produce low (PC-3 flu) levels of PSMA (Dr. Warren Heston, Cleveland Clinic, Cleveland, Ohio).

[1] = test system: PSMA+ PIP and PSMA− flu cells; experiment: cell uptake and internalization study of ^177Lu-SRVI71; format: cell-based
[2] = test system: PSMA+ PIP and PSMA− flu mouse xenografts; settings: for uptake in PSMA+ tumor: n=4, text b326
Method: In vivo evaluation was performed in standard PSMA+ PIP and PSMA− flu mouse xenografts and by performing SPECT imaging with a VECT or instrument with an extra ultra-high sensitivity mouse collimator as disclosed FIG. 25A, FIG. 25B and FIG. 25C.

Work on `O=C(O)CC[C@H](NC(=O)N[C@@H](CCCCNC(=O)CCCCCCC(=O)NCCCC[C@H](NC(=O)C(Cc1ccccc1)NC(=O)C(Cc1ccccc1)NC(=O)C(Cc1ccccc1)NC(=O)CN1CCN(CC(=O)O)CCN(CC(=O)O)CCN(CC(=O)O)CC1)C(=O)O)C(=O)O)C(=O)O` (some centres unmarked) [Compound 5] yielded a Ki (PSMA) of 3.12 nM.
With `O=C([O-])CN1CCN(CC(=O)O)CCN(CC(=O)[O-])CC(Cc2ccc(NC(=S)NCCCCNC(=O)CCCCCCC(=O)NCCCC[C@H](NC(=O)N[C@@H](CCC(=O)O)C(=O)O)C(=O)O)cc2)N(CC(=O)[O-])CC1.[Y+3]` (some centres unmarked) [^89Y-6] the Ki (PSMA) was 2.99 nM.
`O=C(O)CC[C@H](NC(=O)N[C@@H](CCCCNC(=O)CCCCCCC(=O)NCCCCNC(=S)Nc1ccc(CC2CN(CC(=O)O)CCN(CC(=O)O)CCN(CC(=O)O)CCN2CC(=O)O)cc1)C(=O)O)C(=O)O` (stereo partly drawn) [Compound 6, (21S,25S)-8,15,23-trioxo-1-((4-((1,4,7,10-tetrakis(carboxymethyl)-1,4,7,10-tetraazacyclododecan-2-yl)methyl)phenyl)amino)-1-thioxo-2,7,16,22,24-pentaazaheptacosane-21,25,27-tricarboxylic acid] was tested, and the Ki (PSMA) was 1.8 nM.
Molecule `O=C([O-])CN1CCN(CC(=O)[O-])CCN(CC(=O)NC(Cc2ccccc2)C(=O)NC(Cc2ccccc2)C(=O)NC(Cc2ccccc2)C(=O)N[C@@H](CCCCNC(=O)CCCCCCC(=O)NCCCC[C@H](NC(=O)N[C@@H](CCC(=O)O)C(=O)O)C(=O)O)C(=O)O)CCN(CC(=O)[O-])CC1.[Y+3]` (some centres unmarked) [^89Y-5] ({DOTA}-[ξF][ξF][ξF]K(X1)-OH) has a Ki (PSMA) of 0.1 nM.
With `O=C([O-])CN1CCN(CC(=O)[O-])CCN(CC(=O)[O-])C(Cc2ccc(NC(=S)NCCCCNC(=O)CCCCCCC(=O)NCCCC[C@H](NC(=O)N[C@@H](CCC(=O)O)C(=O)O)C(=O)O)cc2)CN(CC(=O)[O-])CC1.[177Lu+3]` (some centres unmarked) [^177Lu-SR-VI-71] the cell uptake ([1]; 0.01-10 μCi, PSMA+ PIP vs PSMA− flu) was “high uptake in PSMA+ PIP and negligible uptake in PSMA− flu tumor”, the “blockade of uptake in PSMA+ cells” value ([1]; co-incubation of 10 μM of ZJ43) was roughly 90% and the “fraction of total cell associated radioactivity internalized” value ([1]; internalization study) was roughly 44%. The “PIP:flu ratio” value ([2]; 2 h) was roughly 180, the kidney uptake ([2]; 2 h) was 89.3±28.9% and the “uptake in PSMA+ tumor” value ([2]; 2 h) was 59.1±12.8 % ID/g. The “Tissue biodistribution, Blood” value ([2]; 3 h) was 0.14 ± 0.04, the “Tissue biodistribution, Flu tumor” value ([2]; 3 h) was 0.14 ± 0.03 and the “Tissue biodistribution, PIP tumor” value ([2]; 3 h) was 41.46 ± 7.88. For the same molecule, the “Tissue biodistribution, SI” value ([2]; 3 h) was 0.23 ± 0.12, the “Tissue biodistribution, heart” value ([2]; 3 h) was 0.09 ± 0.04 and the “Tissue biodistribution, kidney” value ([2]; 3 h) was 53.66 ± 9.64. The “Tissue biodistribution, liver” value ([2]; 3 h) was 0.31 ± 0.25, the “Tissue biodistribution, lung” value ([2]; 3 h) was 0.62 ± 0.31 and the “Tissue biodistribution, muscle” value ([2]; 3 h) was 0.24 ± 0.14. The “Tissue biodistribution, salivary gland” value ([2]; 3 h) was 0.42 ± 0.09, the “Tissue biodistribution, spleen” value ([2]; 3 h) was 1.83 ± 0.38 and the “Tissue biodistribution, Blood” value ([2]; 24 h) was 0.03 ± 0.03. For the same molecule, the “Tissue biodistribution, Flu tumor” value ([2]; 24 h) was 0.09 ± 0.01, the “Tissue biodistribution, PIP tumor” value ([2]; 24 h) was 27.52 ± 1.19 and the “Tissue biodistribution, SI” value ([2]; 24 h) was 0.10 ± 0.05. For the same molecule, the “Tissue biodistribution, heart” value ([2]; 24 h) was 0.04 ± 0.00, the “Tissue biodistribution, kidney” value ([2]; 24 h) was 4.35 ± 0.41 and the “Tissue biodistribution, liver” value ([2]; 24 h) was 0.38 ± 0.35. The “Tissue biodistribution, lung” value ([2]; 24 h) was 0.25 ± 0.026, the “Tissue biodistribution, muscle” value ([2]; 24 h) was 0.04 ± 0.00 and the “Tissue biodistribution, salivary gland” value ([2]; 24 h) was 0.07 ± 0.08. The “Tissue biodistribution, spleen” value ([2]; 24 h) was 0.74 ± 0.64, the kidney uptake ([2]; 24 h) was 6.29±3.4 % ID/g and the “uptake in PSMA+ tumor” value ([2]; 24 h) was 40.6±5.8 ID/g. The “Tissue biodistribution, Blood” value ([2]; 48 h) was 0.03 ± 0.03, the “Tissue biodistribution, Flu tumor” value ([2]; 48 h) was 0.05 ± 0.00 and the “Tissue biodistribution, PIP tumor” value ([2]; 48 h) was 16.99 ± 2.65. For the same molecule, the “Tissue biodistribution, SI” value ([2]; 48 h) was 0.04 ± 0.01, the “Tissue biodistribution, heart” value ([2]; 48 h) was 0.02 ± 0.00 and the “Tissue biodistribution, kidney” value ([2]; 48 h) was 2.35 ± 0.62. For the same molecule, the “Tissue biodistribution, liver” value ([2]; 48 h) was 0.11 ± 0.07, the “Tissue biodistribution, lung” value ([2]; 48 h) was 0.06 ± 0.04 and the “Tissue biodistribution, muscle” value ([2]; 48 h) was 0.02 ± 0.00. The “Tissue biodistribution, salivary gland” value ([2]; 48 h) was 0.10 ± 0.04, the “Tissue biodistribution, spleen” value ([2]; 48 h) was 0.17 ± 0.05 and the “Tissue biodistribution, Blood” value ([2]; 72 h) was 0.01 ± 0.01. The “Tissue biodistribution, Flu tumor” value ([2]; 72 h) was 0.04 ± 0.00, the “Tissue biodistribution, PIP tumor” value ([2]; 72 h) was 15.63 ± 4.62 and the “Tissue biodistribution, SI” value ([2]; 72 h) was 0.05 ± 0.03. For the same molecule, the “Tissue biodistribution, heart” value ([2]; 72 h) was 0.03 ± 0.01, the “Tissue biodistribution, kidney” value ([2]; 72 h) was 2.59 ± 1.10 and the “Tissue biodistribution, liver” value ([2]; 72 h) was 0.05 ± 0.03. The “Tissue biodistribution, lung” value ([2]; 72 h) was 0.03 ± 0.02, the “Tissue biodistribution, muscle” value ([2]; 72 h) was 0.01 ± 0.01 and the “Tissue biodistribution, salivary gland” value ([2]; 72 h) was 0.09 ± 0.04. For the same molecule, the “Tissue biodistribution, spleen” value ([2]; 72 h) was 0.09 ± 0.08, the “Tissue biodistribution, Blood” value ([2]; 96 h) was 0.00 ± 0.00 and the “Tissue biodistribution, Flu tumor” value ([2]; 96 h) was 0.03 ± 0.0. For the same molecule, the “Tissue biodistribution, PIP tumor” value ([2]; 96 h) was 9.04 ± 1.72, the “Tissue biodistribution, SI” value ([2]; 96 h) was 0.01 ± 0.00 and the “Tissue biodistribution, heart” value ([2]; 96 h) was 0.01 ± 0.00. The “Tissue biodistribution, kidney” value ([2]; 96 h) was 1.44 ± 0.11, the “Tissue biodistribution, liver” value ([2]; 96 h) was 0.04 ± 0.0 and the “Tissue biodistribution, lung” value ([2]; 96 h) was 0.05 ± 0.01. The “Tissue biodistribution, muscle” value ([2]; 96 h) was 0.01 ± 0.0, the “Tissue biodistribution, salivary gland” value ([2]; 96 h) was 0.06 ± 0.02 and the “Tissue biodistribution, spleen” value ([2]; 96 h) was 0.06 ± 0.03.
For `O=C([O-])CN1CCN(CC(=O)[O-])CCN(CC(=O)NC(Cc2ccccc2)C(=O)NC(Cc2ccccc2)C(=O)N[C@@H](CCCCNC(=O)CCCCCCC(=O)NCCCC[C@H](NC(=O)N[C@@H](CCC(=O)O)C(=O)O)C(=O)O)C(=O)O)CCN(CC(=O)[O-])CC1.[Y+3]` (some centres unmarked) [^89Y-4], the Ki (PSMA) was 0.36 nM.

— patent US10683272B2 (THE JOHNS HOPKINS UNIVERSITY, priority 2014, dated 2020)
